# Laboratory results reported in patent publication US7579356B2, “Thia-tetraazaacenaphthylene kinase inhibitors” (Janssen Pharmaceutica NV, priority 2005, dated 2009).
# Experiments:
# Format in all cases: biochemical
# EGFR = target: T1, EGFR (Homo sapiens, UniProt P00533); assay: EGFR Kinase Assay; conditions: for IC50: GST-EGFR, ATP 5 μM; for inhibition at 2 µM: test concentration of 2 μM, compounds without an IC50, read-out: EGFR inhibition in percent
# T1 construct: The intracellular portion of EGFR started at nucleotide 2189 (corresponding to amino acid 667) and ended at the termination codon; made in house; host or cells: Sf9 insect cells (baculovirus)
# T1 sequence (P00533 669-1210 limits assumed): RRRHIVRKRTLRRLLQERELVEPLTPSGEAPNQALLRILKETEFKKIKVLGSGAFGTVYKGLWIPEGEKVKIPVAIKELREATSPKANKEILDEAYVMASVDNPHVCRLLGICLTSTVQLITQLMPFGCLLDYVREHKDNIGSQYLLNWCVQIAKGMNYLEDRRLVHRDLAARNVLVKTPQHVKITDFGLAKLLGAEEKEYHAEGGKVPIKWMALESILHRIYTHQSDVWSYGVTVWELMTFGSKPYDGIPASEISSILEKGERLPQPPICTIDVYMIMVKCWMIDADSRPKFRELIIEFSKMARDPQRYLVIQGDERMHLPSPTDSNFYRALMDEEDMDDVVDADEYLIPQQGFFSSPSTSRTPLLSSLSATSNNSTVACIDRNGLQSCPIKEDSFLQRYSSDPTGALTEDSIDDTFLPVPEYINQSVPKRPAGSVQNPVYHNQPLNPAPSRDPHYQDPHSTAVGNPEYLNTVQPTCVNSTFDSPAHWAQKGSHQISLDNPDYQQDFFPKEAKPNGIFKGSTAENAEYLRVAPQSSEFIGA
# In short: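 Potency came from triplicate 16-point half-log titrations starting at 200 uM, with IC50 fitted from % inhibition against log concentration, or % inhibition at 2 μM otherwise. Reaction: Sf9-made GST–EGFR cytoplasmic region (aa 667 onward), biotin-polyGluTyr, 5 μM ATP with 33P tracer, pH 8.0 Tris/Mg/vanadate/DTT, 30 °C for 1 h; captured on streptavidin Flashplates and counted.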
# HER-2 = target: T2, HER-2 (Homo sapiens, UniProt P04626); assay: HER-2 Kinase Assay; conditions: for IC50: value in parentheses; for inhibition at 1 µM: test concentration of 1 μM
# T2 construct: His6 with thrombin site (N); purchased Proqinase (Freiburg, Germany)
# T2 sequence (P04626 679-1255): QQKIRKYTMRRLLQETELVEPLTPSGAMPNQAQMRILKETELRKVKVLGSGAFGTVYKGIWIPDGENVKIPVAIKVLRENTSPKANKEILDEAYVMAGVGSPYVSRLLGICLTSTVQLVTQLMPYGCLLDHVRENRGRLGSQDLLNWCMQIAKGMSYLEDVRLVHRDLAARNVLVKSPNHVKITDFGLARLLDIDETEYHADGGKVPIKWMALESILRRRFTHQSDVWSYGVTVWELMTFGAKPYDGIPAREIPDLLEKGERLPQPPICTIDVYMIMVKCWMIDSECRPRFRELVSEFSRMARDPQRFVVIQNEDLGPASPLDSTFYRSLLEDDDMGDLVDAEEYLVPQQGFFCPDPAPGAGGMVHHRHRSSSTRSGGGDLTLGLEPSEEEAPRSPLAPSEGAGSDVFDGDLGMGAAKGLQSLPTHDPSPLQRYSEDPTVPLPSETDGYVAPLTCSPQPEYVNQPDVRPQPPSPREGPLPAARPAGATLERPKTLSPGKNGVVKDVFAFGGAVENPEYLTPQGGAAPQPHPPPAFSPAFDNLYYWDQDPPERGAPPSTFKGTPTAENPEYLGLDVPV
# In short: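 Read-out was scintillation counting of 33P incorporated into biotinylated polyGluTyr captured on streptavidin plates. Reactions ran 1 h at 30 °C with GST-fused HER-2 residues 679–1255, 1 μM ATP, Mn2+ and Mg2+ at pH 7.5; data given as percent inhibition at 1 μM, with IC50 where determined.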
# c-Src kinase (human) = target: T3, c-Src kinase (human) (Homo sapiens, UniProt P12931); assay: c-Src Kinase Assay; conditions: test concentration of 2 μM; multiple values are separate assay results
# T3 construct: purchased Upstate Biotechnology, Lake Placid, N.Y
# T3 sequence (P12931 whole entry): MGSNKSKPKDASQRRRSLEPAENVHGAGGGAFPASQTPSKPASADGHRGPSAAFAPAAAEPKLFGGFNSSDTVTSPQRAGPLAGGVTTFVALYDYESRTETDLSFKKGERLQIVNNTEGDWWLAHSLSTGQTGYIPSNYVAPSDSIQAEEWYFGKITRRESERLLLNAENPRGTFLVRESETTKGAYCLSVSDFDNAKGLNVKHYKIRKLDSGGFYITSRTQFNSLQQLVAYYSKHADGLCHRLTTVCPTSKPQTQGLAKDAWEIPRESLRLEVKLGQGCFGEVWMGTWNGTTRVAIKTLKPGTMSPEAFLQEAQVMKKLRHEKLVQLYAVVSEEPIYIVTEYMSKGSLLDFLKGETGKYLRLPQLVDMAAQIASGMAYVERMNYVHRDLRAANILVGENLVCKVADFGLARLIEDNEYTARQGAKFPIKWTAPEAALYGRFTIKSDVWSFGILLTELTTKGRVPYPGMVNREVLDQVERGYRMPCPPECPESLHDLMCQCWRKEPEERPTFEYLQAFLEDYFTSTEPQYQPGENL
# In short: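 Inhibition was read as 33P incorporation, counted on P30 filtermats, after a 40 min, 30° C reaction. Human c-Src acted on 100 μM Cdc2 peptide with 5 μM ATP (final), pH 7.0 MOPS/MgCl2. Values are percent inhibition at 2 μM compound, or IC50 where determined.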
# Lyn kinase (human) = target: T4, Lyn kinase (human) (Homo sapiens, UniProt P07948); assay: Lyn Kinase Assay; conditions: test concentration of 2 μM
# T4 construct: purchased Upstate Biotechnology, Lake Placid, N.Y
# T4 sequence (P07948 whole entry): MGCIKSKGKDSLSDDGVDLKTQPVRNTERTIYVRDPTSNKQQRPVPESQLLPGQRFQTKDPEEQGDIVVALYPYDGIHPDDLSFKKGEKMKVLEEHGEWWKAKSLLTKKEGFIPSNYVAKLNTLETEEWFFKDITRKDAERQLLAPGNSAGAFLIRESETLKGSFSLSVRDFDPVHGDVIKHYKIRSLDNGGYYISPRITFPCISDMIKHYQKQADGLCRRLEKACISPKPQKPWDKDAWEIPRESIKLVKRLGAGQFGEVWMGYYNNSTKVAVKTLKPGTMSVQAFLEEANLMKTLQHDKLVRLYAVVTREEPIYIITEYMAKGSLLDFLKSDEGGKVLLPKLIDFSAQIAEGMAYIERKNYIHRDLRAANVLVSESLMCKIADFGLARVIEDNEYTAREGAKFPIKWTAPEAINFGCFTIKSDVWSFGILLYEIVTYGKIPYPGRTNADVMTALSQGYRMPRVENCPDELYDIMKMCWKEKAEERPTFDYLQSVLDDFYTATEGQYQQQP
# In short: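 Radiometric filter-binding assay with recombinant human Lyn, poly(Glu,Tyr) substrate (0.1 mg/mL final), 5 μM ATP plus γ-33P-ATP in MOPS pH 7.5/Mg acetate buffer; 40 min at 30 °C, stopped with phosphoric acid, counted by scintillation. Reported as percent inhibition at 2 μM, with IC50 (μM) where determined.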
smiles,measurement,setting,value
"O=C(NCCN1CCOCC1)c1sc2ncnc3c2c1NC(=O)N3c1ccc(Oc2ccccc2)cc1 [Cpd 105, 4-oxo-5-(4-phenoxy-phenyl)-4,5-dihydro-3H-1-thia-3,5,6,8-tetraaza-acenaphthylene-2-carboxylic acid (2-morpholin-4-yl-ethyl)-amide]",IC50,EGFR,0.11 µM
same,IC50,HER-2,3.15 µM
same,inhibition at 2 µM,c-Src kinase (human),12%
same,inhibition at 2 µM,Lyn kinase (human),-3%
"O=C(NCCCO)c1sc2ncnc3c2c1NC(=O)N3c1ccc(Oc2ccccc2)cc1 [Cpd 106, 4-oxo-5-(4-phenoxy-phenyl)-4,5-dihydro-3H-1-thia-3,5,6,8-tetraaza-acenaphthylene-2-carboxylic acid (3-hydroxy-propyl)-amide]",IC50,EGFR,0.042 µM
same,IC50,HER-2,0.771 µM
same,inhibition at 2 µM,c-Src kinase (human),30%
same,inhibition at 2 µM,Lyn kinase (human),27%
"O=C(O)c1sc2ncnc3c2c1NC(=O)N3c1ccc(Oc2ccccc2)c(F)c1 [Cpd 112, 5-(3-fluoro-4-phenoxy-phenyl)-4-oxo-4,5-dihydro-3H-1-thia-3,5,6,8-tetraaza-acenaphthylene-2-carboxylic acid]",IC50,EGFR,1.03 µM
same,IC50,HER-2,5.06 µM
same,inhibition at 2 µM,c-Src kinase (human),-16%
same,inhibition at 2 µM,Lyn kinase (human),30%
"CN1CCN(Cc2ccc(NC(=O)c3sc4ncnc5c4c3NC(=O)N5c3ccc(Oc4ccccc4)c(F)c3)cc2)CC1 [Cpd 115, 5-(3-fluoro-4-phenoxy-phenyl)-4-oxo-4,5-dihydro-3H-1-thia-3,5,6,8-tetraaza-acenaphthylene-2-carboxylic acid [4-(4-methyl-piperazin-1-ylmethyl)-phenyl]-amide]",IC50,EGFR,0.042 µM
same,IC50,HER-2,0.182 µM
same,inhibition at 2 µM,c-Src kinase (human),-1%
same,inhibition at 2 µM,Lyn kinase (human),51.2%
"Cc1ccc(Oc2ccc(N3C(=O)Nc4c(C(=O)Nc5ccc(CN6CCOCC6)cc5)sc5ncnc3c45)cc2C)cn1 [Cpd 119, 5-[3-methyl-4-(6-methyl-pyridin-3-yloxy)-phenyl]-4-oxo-4,5-dihydro-3H-1-thia-3,5,6,8-tetraaza-acenaphthylene-2-carboxylic acid (4-morpholin-4-ylmethyl-phenyl)-amide]",IC50,EGFR,1.8 µM
same,IC50,HER-2,1.09 µM
same,inhibition at 2 µM,c-Src kinase (human),-17%
same,inhibition at 2 µM,Lyn kinase (human),-47%
"COc1ccc(N2C(=O)Nc3c(C(=O)Nc4ccc(CCN5CCCCC5)cc4)sc4ncnc2c34)cc1Cl [Cpd 120, 5-(3-chloro-4-methoxy-phenyl)-4-oxo-4,5-dihydro-3H-1-thia-3,5,6,8-tetraaza-acenaphthylene-2-carboxylic acid [4-(2-piperidin-1-yl-ethyl)-phenyl]-amide]",IC50,EGFR,1.08 µM
same,IC50,HER-2,11.7 µM
same,inhibition at 2 µM,c-Src kinase (human),-5%
same,inhibition at 2 µM,Lyn kinase (human),0%
"COc1ccc(N2C(=O)Nc3c(C(=O)Nc4ccc(CN5CCCCC5)cc4)sc4ncnc2c34)cc1Cl [Cpd 121, 5-(3-chloro-4-methoxy-phenyl)-4-oxo-4,5-dihydro-3H-1-thia-3,5,6,8-tetraaza-acenaphthylene-2-carboxylic acid (4-piperidin-1-ylmethyl-phenyl)-amide]",IC50,EGFR,0.344 µM
same,IC50,HER-2,3.52 µM
same,inhibition at 2 µM,c-Src kinase (human),-1%
same,inhibition at 2 µM,Lyn kinase (human),-13%
"COc1ccc(N2C(=O)Nc3c(C(=O)Nc4ccc(CN5CCOCC5)cc4)sc4ncnc2c34)cc1Cl [Cpd 122, 5-(3-chloro-4-methoxy-phenyl)-4-oxo-4,5-dihydro-3H-1-thia-3,5,6,8-tetraaza-acenaphthylene-2-carboxylic acid (4-morpholin-1-ylmethyl-phenyl)-amide]",IC50,EGFR,0.222 µM
same,IC50,HER-2,1.44 µM
same,inhibition at 2 µM,c-Src kinase (human),-9%
same,inhibition at 2 µM,Lyn kinase (human),3%
"O=C(Nc1ccc(CN2CCCCC2)cc1)c1sc2ncnc3c2c1NC(=O)N3c1ccc(N2CCOCC2)cc1 [Cpd 124, 5-(4-morpholin-4-yl-phenyl)-4-oxo-4,5-dihydro-3H-1-thia-3,5,6,8-tetraaza-acenaphthylene-2-carboxylic acid (4-piperidin-1-ylmethyl-phenyl)-amide]",inhibition at 2 µM,EGFR,9%
same,IC50,HER-2,> 100 µM
same,inhibition at 2 µM,c-Src kinase (human),30%
same,inhibition at 2 µM,Lyn kinase (human),18%
"O=C(Nc1ccc(N2CCOCC2)cc1)c1sc2ncnc3c2c1NC(=O)N3c1ccc(N2CCOCC2)cc1 [Cpd 125, 5-(4-morpholin-4-yl-phenyl)-4-oxo-4,5-dihydro-3H-1-thia-3,5,6,8-tetraaza-acenaphthylene-2-carboxylic acid (4-morpholin-4-yl-phenyl)-amide]",inhibition at 2 µM,EGFR,20%
same,IC50,HER-2,> 100 µM
same,inhibition at 2 µM,c-Src kinase (human),5%
same,inhibition at 2 µM,Lyn kinase (human),21%
"CC(C)(C)OC(=O)N1CCC(NC(=O)c2sc3ncnc4c3c2NC(=O)N4c2ccc(N3CCOCC3)cc2)CC1 [Cpd 126, 4-{[5-(4-morpholin-4-yl-phenyl)-4-oxo-4,5-dihydro-3H-1-thia-3,5,6,8-tetraaza-acenaphthylene-2-carbonyl]-amino}-piperidine-1-carboxylic acid tert-butyl ester]",inhibition at 2 µM,EGFR,3%
same,IC50,HER-2,> 100 µM
same,inhibition at 2 µM,c-Src kinase (human),-4%
same,inhibition at 2 µM,Lyn kinase (human),19%
"O=C(NCc1ccco1)c1sc2ncnc3c2c1NC(=O)N3c1ccc(N2CCOCC2)cc1 [Cpd 127, 5-(4-morpholin-4-yl-phenyl)-4-oxo-4,5-dihydro-3H-1-thia-3,5,6,8-tetraaza-acenaphthylene-2-carboxylic acid (furan-2-ylmethyl)-amide]",inhibition at 2 µM,EGFR,0.5%
same,IC50,HER-2,> 100 µM
same,inhibition at 2 µM,c-Src kinase (human),-2%
same,inhibition at 2 µM,Lyn kinase (human),25%
"Cc1ccc(Oc2ccc(N3C(=O)Nc4c(C(=O)Nc5ccc(CN6CCOCC6)cc5)sc5ncnc3c45)cc2Cl)cn1 [Cpd 129, 5-[3-chloro-4-(6-methyl-pyridin-3-yloxy)-phenyl]-4-oxo-4,5-dihydro-3H-1-thia-3,5,6,8-tetraaza-acenaphthylene-2-carboxylic acid (4-morpholin-4-ylmethyl-phenyl)-amide]",IC50,EGFR,0.154 µM
same,inhibition at 1 µM,HER-2,63%
same,IC50,HER-2,0.515 µM
same,inhibition at 2 µM,c-Src kinase (human),-3%
same,inhibition at 2 µM,Lyn kinase (human),10%
"O=C(Nc1ccccc1)c1sc2ncnc3c2c1NC(=O)N3c1cccc(Br)c1 [Cpd 130, 5-(3-bromo-phenyl)-4-oxo-4,5-dihydro-3H-1-thia-3,5,6,8-tetraaza-acenaphthylene-2-carboxylic acid phenylamide]",IC50,EGFR,0.191 µM
same,IC50,HER-2,> 100 µM
same,inhibition at 2 µM,c-Src kinase (human),-3%
same,inhibition at 2 µM,Lyn kinase (human),32%
"O=C(Nc1ccc(CN2CCCCC2)cc1)c1sc2ncnc3c2c1NC(=O)N3c1ccc(Oc2cccc(F)c2)cc1 [Cpd 131, 5-[4-(3-fluoro-phenoxy)-phenyl]-4-oxo-4,5-dihydro-3H-1-thia-3,5,6,8-tetraaza-acenaphthylene-2-carboxylic acid (4-piperidin-1-ylmethyl-phenyl)-amide]",IC50,EGFR,0.01 µM
same,inhibition at 1 µM,HER-2,91%
same,IC50,HER-2,0.084 µM
same,inhibition at 2 µM,c-Src kinase (human),36%
same,inhibition at 2 µM,Lyn kinase (human),41%
"O=C(Nc1ccc(CCN2CCCCC2)cc1)c1sc2ncnc3c2c1NC(=O)N3c1ccc(Oc2cccc(F)c2)cc1 [Cpd 132, 5-[4-(3-fluoro-phenoxy)-phenyl]-4-oxo-4,5-dihydro-3H-1-thia-3,5,6,8-tetraaza-acenaphthylene-2-carboxylic acid [4-(2-piperidin-1-yl-ethyl)-phenyl]-amide]",IC50,EGFR,0.015 µM
same,inhibition at 1 µM,HER-2,76%
same,IC50,HER-2,0.495 µM
same,inhibition at 2 µM,c-Src kinase (human),32%
same,inhibition at 2 µM,Lyn kinase (human),33%
"O=C(NCCCO)c1sc2ncnc3c2c1NC(=O)N3c1ccc(Oc2cccc(F)c2)cc1 [Cpd 133, 5-[4-(3-fluoro-phenoxy)-phenyl]-4-oxo-4,5-dihydro-3H-1-thia-3,5,6,8-tetraaza-acenaphthylene-2-carboxylic acid (3-hydroxy-propyl)-amide]",IC50,EGFR,0.034 µM
same,inhibition at 1 µM,HER-2,0%
same,IC50,HER-2,> 10 µM
same,inhibition at 2 µM,c-Src kinase (human),16%
same,inhibition at 2 µM,Lyn kinase (human),20%
"O=C(Nc1ccc(CN2CCOCC2)cc1)c1sc2ncnc3c2c1NC(=O)N3c1ccc(Oc2cccc(F)c2)cc1 [Cpd 134, 5-[4-(3-fluoro-phenoxy)-phenyl]-4-oxo-4,5-dihydro-3H-1-thia-3,5,6,8-tetraaza-acenaphthylene-2-carboxylic acid (4-morpholin-4-ylmethyl-phenyl)-amide]",IC50,EGFR,0.021 µM
same,inhibition at 1 µM,HER-2,35%
same,IC50,HER-2,0.087 µM
same,inhibition at 2 µM,c-Src kinase (human),49%
same,inhibition at 2 µM,Lyn kinase (human),48%
"O=C(Nc1ccc(CN2CCCCC2)cc1)c1sc2ncnc3c2c1NC(=O)N3c1ccc(Oc2ccccc2)c(Cl)c1 [Cpd 135, 5-(3-chloro-4-phenoxy-phenyl)-4-oxo-4,5-dihydro-3H-1-thia-3,5,6,8-tetraaza-acenaphthylene-2-carboxylic acid (4-piperidin-1-ylmethyl-phenyl)-amide]",IC50,EGFR,0.018 µM
same,inhibition at 1 µM,HER-2,85%
same,IC50,HER-2,0.09 µM
same,inhibition at 2 µM,c-Src kinase (human),12%
same,inhibition at 2 µM,Lyn kinase (human),46%
